Common to all, as to format: functional
The test system of one experiment is Staphylococcus aureus. The experiment is described as follows: Antibacterial activity against Staphylococcus aureus NCIM 2901 by broth dilution method.
The next experiment has as its system Escherichia coli. The experiment is described as follows: Antibacterial activity against Escherichia coli NCIM 2256 by broth dilution method. Background: Broth dilution looks for growth in wells or tubes with falling amounts of substance.
The next experiment concerns Aspergillus niger. The experiment is described as follows: Antifungal activity against Aspergillus niger by broth dilution method.
The subject of another experiment is Candida albicans. The experiment is described as follows: Antifungal activity against Candida albicans by broth dilution method.
For the next experiment, the system named is Bacillus subtilis. The experiment is described as follows: Antibacterial activity against Bacillus subtilis NCIM 2063 by broth dilution method.
The next experiment relates to Aspergillus flavus. The experiment is described as follows: Antifungal activity against Aspergillus flavus by broth dilution method.

Molecules are shown by their SMILES. In brackets after ≈: the same amount, converted by molar mass.

Usually MIC stands for the smallest concentration in the dilution series that meets the test's criterion for growth inhibition. As to `CC(=O)c1sc(NC(=O)CN2CCC(Cc3ccccc3)CC2)nc1C`, the MIC in the experiment with Staphylococcus aureus came to 50 µg/mL (≈ 135 µM); against Escherichia coli it was 60 µg/mL (≈ 162 µM); in the experiment with Aspergillus niger, 50 µg/mL (≈ 135 µM); in the experiment with Candida albicans, 100 µg/mL (≈ 269 µM); in the experiment with Bacillus subtilis it was 35 µg/mL (≈ 94.2 µM); against Aspergillus flavus, 50 µg/mL (≈ 135 µM).

On to `CCOC(=O)c1sc(NC(=O)CN2CCCCC2)nc1C`, for which the MIC is 100 µg/mL (≈ 321 µM) against Staphylococcus aureus; 60 µg/mL (≈ 193 µM) against Escherichia coli; 100 µg/mL (≈ 321 µM) with Aspergillus niger; 75 µg/mL (≈ 241 µM) against Candida albicans; 45 µg/mL (≈ 145 µM) with Bacillus subtilis; 100 µg/mL (≈ 321 µM) against Aspergillus flavus.

Consider `CCOC(=O)c1sc(NC(=O)CN2CCC(C)CC2)nc1C`, for which the MIC against Staphylococcus aureus is 70 µg/mL (≈ 215 µM); against Escherichia coli it was 50 µg/mL (≈ 154 µM); with Aspergillus niger, 50 µg/mL (≈ 154 µM); against Candida albicans, 75 µg/mL (≈ 230 µM); against Bacillus subtilis, 35 µg/mL (≈ 108 µM); in the experiment on Aspergillus flavus, 50 µg/mL (≈ 154 µM).

As to `COC(=O)c1sc(NC(=O)CN2CCC(Cc3ccccc3)CC2)nc1C1CC1`, the MIC was 28 µg/mL (≈ 67.7 µM) in the experiment on Staphylococcus aureus; 29 µg/mL (≈ 70.1 µM) against Escherichia coli; 12.5 µg/mL (≈ 30.2 µM) against Aspergillus niger; 25 µg/mL (≈ 60.5 µM) with Candida albicans; 29 µg/mL (≈ 70.1 µM) against Bacillus subtilis; 12.5 µg/mL (≈ 30.2 µM) in the experiment with Aspergillus flavus.

Turning to `CCOC(=O)c1sc(NC(=O)CN2CCC(Cc3ccccc3)CC2)nc1CC`, the MIC turned out to be 100 µg/mL (≈ 241 µM) against Staphylococcus aureus; 100 µg/mL (≈ 241 µM) against Escherichia coli; 100 µg/mL (≈ 241 µM) in the experiment with Aspergillus niger; 75 µg/mL (≈ 180 µM) against Candida albicans; 40 µg/mL (≈ 96.3 µM) in the experiment on Bacillus subtilis; 100 µg/mL (≈ 241 µM) against Aspergillus flavus.

With `COC(=O)c1cnc(NC(=O)CN2CCC(Cc3ccccc3)CC2)s1`, the MIC with Staphylococcus aureus was 50 µg/mL (≈ 134 µM); in the experiment on Escherichia coli, 60 µg/mL (≈ 161 µM); in the experiment with Aspergillus niger, 50 µg/mL (≈ 134 µM); against Candida albicans, 100 µg/mL (≈ 268 µM); in the experiment on Bacillus subtilis, 35 µg/mL (≈ 93.7 µM); in the experiment with Aspergillus flavus, 50 µg/mL (≈ 134 µM).

As to `CCOC(=O)c1cnc(NC(=O)CN2CCC(Cc3ccccc3)CC2)s1`, the MIC against Staphylococcus aureus was 28 µg/mL (≈ 72.3 µM); with Escherichia coli, 29 µg/mL (≈ 74.8 µM); in the experiment on Aspergillus niger, 12.5 µg/mL (≈ 32.3 µM); against Candida albicans, 25 µg/mL (≈ 64.5 µM); in the experiment on Bacillus subtilis it was 29 µg/mL (≈ 74.8 µM); in the experiment on Aspergillus flavus, 12.5 µg/mL (≈ 32.3 µM).

`CCOC(=O)c1sc(NC(=O)CN2CCC(Cc3ccccc3)CC2)nc1C`: the MIC against Staphylococcus aureus came out at 70 µg/mL (≈ 174 µM); against Escherichia coli, 50 µg/mL (≈ 125 µM); against Aspergillus niger, 50 µg/mL (≈ 125 µM); with Candida albicans it was 75 µg/mL (≈ 187 µM); in the experiment with Bacillus subtilis it was 35 µg/mL (≈ 87.2 µM); in the experiment on Aspergillus flavus, 50 µg/mL (≈ 125 µM).

On to `Cc1csc(NC(=O)CN2CCC(Cc3ccccc3)CC2)n1`, for which the MIC came to 70 µg/mL (≈ 212 µM) against Staphylococcus aureus; 50 µg/mL (≈ 152 µM) in the experiment with Escherichia coli; 50 µg/mL (≈ 152 µM) against Aspergillus niger; 75 µg/mL (≈ 228 µM) against Candida albicans; 35 µg/mL (≈ 106 µM) in the experiment on Bacillus subtilis; 50 µg/mL (≈ 152 µM) with Aspergillus flavus.

Regarding `CCOC(=O)c1sc(NC(=O)CN2CCC(c3ccccc3)CC2)nc1C`, the MIC against Staphylococcus aureus was found to be 30 µg/mL (≈ 77.4 µM); in the experiment with Escherichia coli it was 29 µg/mL (≈ 74.8 µM); in the experiment with Aspergillus niger, 25 µg/mL (≈ 64.5 µM); against Candida albicans, 25 µg/mL (≈ 64.5 µM); with Bacillus subtilis, 28 µg/mL (≈ 72.3 µM); against Aspergillus flavus it was 12.5 µg/mL (≈ 32.3 µM).

With `Cc1nc(NC(=O)CN2CCC(Cc3ccccc3)CC2)sc1C`, the MIC against Staphylococcus aureus stood at 30 µg/mL (≈ 87.3 µM); with Escherichia coli it was 29 µg/mL (≈ 84.4 µM); against Aspergillus niger it was 12.5 µg/mL (≈ 36.4 µM); against Candida albicans, 25 µg/mL (≈ 72.8 µM); in the experiment with Bacillus subtilis it was 28 µg/mL (≈ 81.5 µM); against Aspergillus flavus, 12.5 µg/mL (≈ 36.4 µM).

Regarding `CCOC(=O)c1sc(NC(=O)CN2CCC(Cc3ccccc3)CC2)nc1-c1ccccc1`, the MIC against Staphylococcus aureus was found to be 28 µg/mL (≈ 60.4 µM); in the experiment with Escherichia coli, 29 µg/mL (≈ 62.6 µM); in the experiment with Aspergillus niger it was 25 µg/mL (≈ 53.9 µM); with Candida albicans, 50 µg/mL (≈ 108 µM); with Bacillus subtilis it was 25 µg/mL (≈ 53.9 µM); in the experiment with Aspergillus flavus, 25 µg/mL (≈ 53.9 µM).

Turning to `OC(Cn1cncn1)(Cn1cncn1)c1ccc(F)cc1F` [FLUCONAZOLE], the MIC was 25 µg/mL (≈ 81.6 µM) against Aspergillus niger, 40 µg/mL (≈ 131 µM) against Candida albicans and 25 µg/mL (≈ 81.6 µM) against Aspergillus flavus.

Turning to `C[C@H]1COc2c(N3CCN(C)CC3)c(F)cc3c(=O)c(C(=O)O)cn1c23.C[C@H]1COc2c(N3CCN(C)CC3)c(F)cc3c(=O)c(C(=O)O)cn1c23.O` [LEVOFLOXACIN], the values for the MIC in the experiment with Staphylococcus aureus, against Escherichia coli and against Bacillus subtilis were 28 µg/mL, 29 µg/mL and 29 µg/mL, respectively.

For the molecule `Clc1ccc(COC(Cn2ccnc2)c2ccc(Cl)cc2Cl)c(Cl)c1` (stereo unspecified) [MICONAZOLE], the MIC in the experiment with Aspergillus niger, in the experiment on Candida albicans and in the experiment on Aspergillus flavus was 12.5 µg/mL (≈ 30 µM) in each case.

(Values after ChEMBL document CHEMBL3822408, “Synthesis and antimicrobial evaluation of novel ethyl 2-(2-(4-substituted)acetamido)-4-subtituted-thiazole-5-carboxylate derivatives” (2016).)
